Data on six molecules can be found in patent publication US8242152B2, “Use of 4-[(4-thiazolyl)phenoxy]alkoxy-benzamidine derivatives for the prophylaxis and treatment of osteoporosis” (Dong Wha Pharmaceutical Co., Ltd., priority 2001, dated 2012).

Assay [1] has as its system bone resorption of osteoclast. Put plainly: Measurement of bone resorption, pit formation assay on ivory fragment (Example 3). It counts as cell-based, mice. The following applies: 24 hrs; for inhibition at 0.016 µM / inhibition at 0.08 µM / inhibition at 0.4 µM / inhibition at 2 µM / inhibition at 10 µM / IC50: Mus musculus, Osteoclast; for inhibition at 0.016 µM / inhibition at 0.08 µM / inhibition at 0.4 µM / inhibition at 2 µM / inhibition at 10 µM: read-out: Inhibitory action (%). The procedure:
The mature osteoclast (OCL) is mainly involved in removing mineral by bone resorption. This experiment is designed to measure the inhibitory effects of each test substance on the bone resorption of osteoclast using ivory fragment (Eijiro Jimi et al. Endocrinology 137, p 2187-2190, 1996).
The co-culture system for both bone marrow cells and osteoblast was performed using a cultivation dish containing collagen gel (cell matrix Type I-A). Collagen, 5-fold concentrated α-MEM medium and 0.05M NaOH buffer solution (2.2% NaHCO3, pH7.4) were mixed at the ratio of 7:2:1 at a low temperature, and then storage at a low temperature. Then, 4 mL of the mixed solution was added to a 100 mm culture dish, applied evenly and left at 37° C. for 5 minutes.
Using α-MEM medium, the mixture of both bone marrow cells (about 1×10^7 cells/plate) and osteoblast (about 5×10^5 cells/plate), so separated from Example 1, were plated on a 100 mm dish containing collagen gel. The co-culture was performed in the presence of differentiation factors such as vitamin D (10^−9M) and dexamethasone (10^−6M). As described above, a great number of mature multinucleated osteoclasts with the ability of bone resorption were obtained via a 7-day co-culture. The medium was removed from the cells and with the addition of 0.2% collagenase solution, the attachment cells were separated by incubation for 20 minutes. The cells were collected via centrifuge. The harvested crude osteoclasts were again diluted in α-MEM medium to make the cells of 5,000 cells/100 ul.
Hematoxylin staining solution was prepared in a manner such that hematoxylin (1 g) was dissolved in 500 ml of distilled water and was added to 500 ml of distilled water and […] (0.2 g). The reaction mixture was stirred for 15 mins. Ammonium alum (50 g) and 7.5 ml of acetic acid were further added to the reaction mixture and filtered off.
After the ivory fragments, cut to a thickness of 1 mm, were sterilized, each fragment was placed into a 96 well plate, and 100 ul α-MEM medium (10% FBS) was added. To measure its inhibitory effect against the pit formation of osteoclast, each test substance was added in a maximum amount of 3 ul per concentration.
With the addition of test substances, 100 ul of osteoclast solution was further added, mixed vigorously and cultured using a 5% CO2 incubator at 37° C. for 24 hrs. To observe the pits formed on the ivory fragments, the portion of grown osteoclast was directed upward and placed on a paper towel after removing from the 96 well plate. With the removal of cells on the ivory, 10 ul of hematoxylin solution was dropped on the ivory to perform the staining for about 5 minutes. The surface of the ivory fragments was rubbed with a soft cotton pole to completely remove the staining solution.

Another assay has as its target LTB4 receptor (Homo sapiens, UniProt Q15722). Nature of the assay: LTB4 receptor binding assay on human neutrophils ([3H]-LTB4). The following applies: 100 nM; versus DW1350. More on the design: endogenous in cells; host or cells: human neutrophils (PMN) purified from fresh blood. The procedure: Neutrophils (PMN) were purified from freshly drawn human blood by standard techniques or dextran T-500 sedimentation and centrifugation on Ficoll/Paquc (pharmacia) followed by hypotonic lysis of crythrocyte. The purified PMN were resuspended to a final concentration of 3×10^7 cells/ml in HESS (Hank's balanced salt solution, Gibco).
The assay was performed following the method described elsewhere (Brown. A. R.; Grccnham, N. C.; Burroughes, J. H.: Bradely, D. C. C.; Friend. R. H.; Burn, P. L.; Kraft. A.: Holmes, A. B.; Chem. Phys, Lett. 1992, 200, 1246). LTB4 receptor binding assay was performed in 12×75 mm polypropylene tubes containing 0.5 nM of [^3H]-LTB4 (200 Ci/mmol), competitive compound, and cells suspended in HBSS (3×10^6 cells) (final volume: 200 ul). The tubes were incubated on ice for 45 minutes. Free and PMN bound [^3H]-LTB4 were separated by filtration through Whatman GF/C filters. The filters were then washed three times with 5 ml of ice cold Tris buffer (pH 7.4). […] The radioactivity was measured by liquid scintillation spectrometry. The specific binding was determined as the count difference total binding and binding in the presence of 1000-fold excess of unlabeled LTB4 (Scontrol). The LTB4 binding activity was calculated from the percent inhibition of specific [^3H]-LTB4 binding at various concentrations (Ssample). […]

LTB4 receptor, sequence (Q15722 whole entry): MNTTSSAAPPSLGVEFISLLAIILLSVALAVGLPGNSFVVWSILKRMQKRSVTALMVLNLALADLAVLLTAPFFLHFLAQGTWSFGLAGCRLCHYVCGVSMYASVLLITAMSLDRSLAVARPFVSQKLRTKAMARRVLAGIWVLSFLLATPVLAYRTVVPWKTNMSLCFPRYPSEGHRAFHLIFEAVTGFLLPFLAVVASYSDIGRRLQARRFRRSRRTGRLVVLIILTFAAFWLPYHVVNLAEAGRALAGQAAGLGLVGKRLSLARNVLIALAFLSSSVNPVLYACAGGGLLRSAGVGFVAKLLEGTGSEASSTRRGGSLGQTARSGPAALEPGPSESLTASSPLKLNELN

Consider “4-[5-[4-(aminoiminomethyl)phenoxy]pentoxy]-3-methoxy-N,N-bis(1-methylethyl)benzamide maleic acid [CGS-25019C]”, for which the “Inhibitory action (%)” value turned out to be 0% in assay [1] (0.016 μM); 0% in assay [1] (0.08 μM); 2% in assay [1] (0.4 μM); 9.2% in assay [1] (2 μM); 17.3% in assay [1] (10 μM).
As to `Cc1nc(-c2ccc(OCCCCOc3ccc(C(=N)NO)cc3)cc2)c(C(C)C)s1` [DW1349, N— hydroxy-4-{4-[4-(5-isopropyl-2-methyl-1,3-thiazol-4-yl)phenoxy]butoxy}-benzamidine], the “times the inhibition of LTB4 receptor binding of DW1350” value at LTB4 receptor is “more than three times”.
The IC50 is the concentration at which inhibition is half-maximal. A lower IC50 goes with inhibition by little substance. Take `Cc1nc(-c2ccc(OCCCCCOc3ccc(C(=N)NO)cc3)cc2)c(C(C)C)s1` [DW1350, N-hydroxy-4-{5-[4-(5-isopropyl-2-methyl-1,3-thiazol-4-yl)phenoxy]pentoxy}-benzamidine]: the inhibition at 0.016 µM in assay [1] (0.016 μM) worked out at 32.2%. Moreover, in assay [1] (0.08 μM), the inhibition at 0.08 µM worked out at 53.9%. In assay [1] (0.4 μM), the inhibition at 0.4 µM was 65.2%. For the same molecule, the inhibition at 2 µM in assay [1] (2 μM) amounted to 84.3%. Further, in assay [1] (10 μM), the inhibition at 10 µM was 91.3%. Half-maximal inhibition in assay [1] (IC50) was put at 75 nM.
Take `Cc1nc(-c2ccc(OCCCCOc3ccc(C(=N)N)cc3)cc2)c(C(C)C)s1` [DW1351, 4-{4-[4-(5-isopropyl-2-methyl-1,3-thiazol-4-yl)phenoxy]butoxy}-benzamidine]: the “times the inhibition of LTB4 receptor binding of DW1350” value at LTB4 receptor was “more than eight times”.
As for `Cc1nc(-c2ccc(OCCCCCOc3ccc(C(=N)N)cc3)cc2)c(C(C)C)s1` [DW1352, 4-{5-[4-(5-isopropyl-2-methyl-1,3-thiazol-4-yl)phenoxy]pentoxy}-benzamidine], the inhibition at 0.016 µM in assay [1] (0.016 μM) amounted to 25%. For the same molecule, in assay [1] (0.08 μM), the inhibition at 0.08 µM was 48.7%. Also, in assay [1] (0.4 μM), the inhibition at 0.4 µM came to 61.3%. For the same molecule, the inhibition at 2 µM in assay [1] (2 μM) was found to be 81.7%. The inhibition at 10 µM in assay [1] (10 μM) was 90%. Moreover, the IC50 in assay [1] amounted to 131 nM.
Take `COc1cc(C(=O)N(C(C)C)C(C)C)ccc1OCCCCOc1ccc2c(N)noc2c1` [HS1141, N,N-diisopropyl-4-[4-(3-aminobenzo[d]isooxazole-6-yloxy)butoxy]-3-methoxybenzamide]: the inhibition at 0.016 µM in assay [1] (0.016 μM) amounted to 9%. Also, the inhibition at 0.08 µM in assay [1] (0.08 μM) turned out to be 33%. In assay [1] (0.4 μM), the inhibition at 0.4 µM was 50.4%. In addition, in assay [1] (2 μM), the inhibition at 2 µM turned out to be 75.3%. In assay [1] (10 μM), the inhibition at 10 µM was found to be 88.7%. This molecule also showed an IC50 in assay [1] of 421 nM.
